# Results: US11753373B2, “Protease inhibitors as antivirals” (priority 2021, dated 2023)
# Columns and labels:
# [1] = assay type: in vitro ADME; conditions: extraction ratio, compound at 1 uM; for Liver Microsomal Stability (ER) SD rat: SD rat liver microsomes 0.5 mg/mL; for Liver Microsomal Stability (ER) Beagle dog: beagle dog liver microsomes 0.5 mg/mL; for Liver Microsomal Stability (ER) Monkey: monkey liver microsomes 0.5 mg/mL; for Liver Microsomal Stability (ER) Mouse: mouse liver microsomes 0.5 mg/mL
# Description: (§1) Metabolic stability of novel protease inhibitors was determined via liver microsomal stability assay. Human, mouse, SD rat, beagle dog or monkey liver microsomes were incubated with the test compound for 5 to 60 minutes at 37° C., and then the remaining parent compound was quantified by LC-MS/MS. Percentage of the test compound remaining, half-life (t1/2), in vitro intrinsic clearance (CLint, in vitro), in vivo intrinsic clearance (CLint, in vivo), hepatic clearance (CLh) and extraction ratio (ER) were calculated.
# (§2) Procedure: The assay was done as described in Baranczewski, P. et al. (2006) Pharmacological Reports 58:453-472; Pearson, P. and Wienkers, L. (2008) Handbook of Drug Metabolism, 2nd Edition. CRC Pres, P.478; and Venkatesh, P. et al. (2007) Biol. Pharm. Bull. 30:1021-2024. 0.625 mg/mL liver microsomes solution was prepared by mixing 2325 μL 100 mM of K-phosphate buffer (pH 7.4) containing 2.5 mM of MgCl2, 1.25 mM of EDTA, and 75 μL microsomes (20 mg/mL) in a vial for each species.
# (§3) Positive control compound: (±) Verapamil hydrochloride (Cat No.: V4629; Lot No.: MKBV4993V; Source: Sigma)
# (§4) 40 μL aliquots of the liver microsome/test compound mixture were dispensed into 96-well plate in triplicate and pre-warmed the mixture for 5 minutes at 37° C. Then, 10 μL of 5 mM NADPH solution was added to each well to initiate the reaction, and gently mixed. The samples were incubated at 37° C. with gentle shaking. (Final concentrations: compound=1 μM; liver microsomes protein=0.5 mg/mL; MgCl2=2 mM; EDTA=1 mM; ACN=0.1%; DMSO=0.05%).
# (§5) For 0-min samples, 200 μL of ACN containing internal standard was added to 40 μL of liver microsome/test compound mixture, followed by addition of 5 mM NADPH, and mixed gently.
# (§6) For negative control: 40 μL of liver microsome/test compound mixture was incubated at 37° C. with gentle shaking for 60 minutes, followed by addition of 200 μL ACN containing 1% FA and internal standard and 10 μL of 5 mM NADPH, mixed gently.
# (§7) All samples were centrifuged at 4° C. for 20 minutes at 4,000 rpm. Then, 100 μL of the supernatant from each sample was transferred to a new 96-well plate and 100 μL of ultrapure water containing 1% FA was added to each well, and mixed gently. Samples were analyzed by LC-MS/MS.
# (§8) Data Analysis: Peak area ratio (Peak Area of test compound/Peak Area of internal standard) was used to represent the concentration of compound in each sample. The remaining percentage (% Remaining) at appointed time points was calculated versus the concentration of compound at 0 min. The Ln value of the remaining percentage was linearly fitted against the incubation time.
# (§9) The half-life and clearance were calculated using the following equations:
# (§10) Determined percent of the remaining test compound: % remaining=[area at tx/average areas at t0]×100 (1) % metabolized=[100−% remaining] (2)
# (§11) Calculated the half-life (t1/2) using the slope (k) of the log-linear regression from the concentration of remaining parent compound versus time (min) relationship: t1/2 (min)=−ln 2/k. (3)
# (§12) Clint, in vitro (mL/min/mg) Clint,in vitro=k/c,(c:Liver microsome concentration in the incubation system) (4)
# (§13) Hepatic Clearance (CLh) CLh=Clint,in vivo*Hepatic Blood Flow (mL/min/kg)/(Hepatic Blood Flow (mL/min/kg)+Clint,in vivo) (6)
# (§14) Extraction ratio (ER): ER=CLint,in vivo/(Qh+CLint,in vivo)*100,Qh:liver blood flow (7)
# [2] = assay type: in vitro ADME, Human; conditions: extraction ratio, compound at 1 uM, human liver microsomes 0.5 mg/mL
# Description: as §1, §2, §3
# as §4, with “shaking.” for “shaking. (Final concentrations: compound=1 μM; liver microsomes protein=0.5 mg/mL; MgCl2=2 mM; EDTA=1 mM; ACN=0.1%; DMSO=0.05%).”
# as §5, §6, §7, §8, §9, §10, §11, §12, §13, §14
# [3] = tested on: SARS-CoV-2; assay: Anti-viral in vitro PRNT assay in Vero E6 cells; assay type: cell-based; conditions: Vero E6 cells, 1000 pfu, 3 days, plaque reduction; for EC50: read-out: anti-SARS-CoV2 (PRNT) in Vero E6 EC50
# [4] = mouse oral PK, female Balb/c, 40 mg/kg single dose, plasma
Compound,Liver Microsomal Stability (ER) SD rat [1],Liver Microsomal Stability (ER) Beagle dog [1],Liver Microsomal Stability (ER) Monkey [1],Liver Microsomal Stability (ER) Mouse [1],Liver Microsomal Stability (ER) Human [2],EC50 [3],anti-SARS-CoV2 (PRNT) in Vero E6 EC50 (μM) [3],AUC0-t [4],Cmax [4],Tmax [4],t1/2 [4]
CC(C)C[C@H](NC(=O)OCc1ccccc1)C(=O)N[C@H](C#N)C[C@@H]1CCNC1=O [Compound B-1-e],0.48,0.37,0.11,0.00,0.24,10.5 µM,,,,,
C=CC(=O)N[C@H](C[C@@H]1CCNC1=O)NC(=O)[C@H](CC(C)C)NC(=O)OCc1ccccc1 [Compound B-1-f],0.13,0.04,0.04,0.07,−0.19,,inactive,,,,
C=CC(=O)N[C@H](C[C@@H]1CCNC1=O)NC(=O)[C@H](CC1CCCCC1)NC(=O)OCc1ccccc1 [Compound B-2-e],0.19,0.47,0.70,0.43,0.73,,inactive,,,,
C=CC(=O)N[C@H](C[C@@H]1CCNC1=O)NC(=O)[C@@H]1[C@@H]2[C@H](CN1C(=O)[C@@H](NC(=O)C(F)(F)F)C(C)(C)C)C2(C)C [Compound D-1-e],0.04,−0.04,−0.10,−0.04,−0.05,,inactive,,,,
C[C@H](NC(=O)[C@@H]1[C@@H]2[C@H](CN1C(=O)[C@@H](NC(=O)C(F)(F)F)C(C)(C)C)C2(C)C)C(=O)CCl [Compound F-1-b],0.53,0.46,0.44,0.38,0.48,,inactive,,,,
CC(C)[C@H](NC(=O)[C@@H]1[C@@H]2[C@H](CN1C(=O)[C@@H](NC(=O)C(F)(F)F)C(C)(C)C)C2(C)C)C(=O)CCl [Compound F-2-b],0.65,0.55,0.57,0.50,0.81,0.42 µM,,,,,
C[C@@H](C=O)NC(=O)[C@@H]1[C@@H]2[C@H](CN1C(=O)[C@@H](NC(=O)C(F)(F)F)C1CC1)C2(C)C [Compound F-3-c],0.02,−0.04,−0.03,−0.05,−0.35,,inactive,,,,
CC(C)[C@@H](C#N)NC(=O)[C@@H]1[C@@H]2[C@H](CN1C(=O)[C@@H](NC(=O)C(F)(F)F)C1CC1)C2(C)C [Compound F-4-a],0.20,0.08,0.07,0.03,0.07,,inactive,,,,
CC(C)C[C@H](NC(=O)C(F)F)C(=O)N1C[C@H]2[C@@H]([C@H]1C(=O)N[C@H](C#N)C[C@@H]1CCNC1=O)C2(C)C [Compound H-1-b],0.06,0.05,,0.35,0.09,,,304 ng·h/mL,193 ng/mL,0.5 h,2.39 h
